Structures are written as SMILES.

The source of these data is patent US10336762B2 (priority 2017, dated 2019).

One assay deals with TNFα. Kind of assay: cells. The format is cell-based, human. The following applies: Homo sapiens, Monocyte, LPS-stimulated human monocytes, TNFα content; read-out: EC50 TNF.
The target in a further assay is IRAK4 enzyme (Homo sapiens (Human), UniProt Q9NWZ3). The assay can be described thus: biochemical. The format is biochemical. Conditions: IRAK4 enzyme, TR-FRET, 500 μM ATP.
Sequence of IRAK4 enzyme (Q9NWZ3 whole entry): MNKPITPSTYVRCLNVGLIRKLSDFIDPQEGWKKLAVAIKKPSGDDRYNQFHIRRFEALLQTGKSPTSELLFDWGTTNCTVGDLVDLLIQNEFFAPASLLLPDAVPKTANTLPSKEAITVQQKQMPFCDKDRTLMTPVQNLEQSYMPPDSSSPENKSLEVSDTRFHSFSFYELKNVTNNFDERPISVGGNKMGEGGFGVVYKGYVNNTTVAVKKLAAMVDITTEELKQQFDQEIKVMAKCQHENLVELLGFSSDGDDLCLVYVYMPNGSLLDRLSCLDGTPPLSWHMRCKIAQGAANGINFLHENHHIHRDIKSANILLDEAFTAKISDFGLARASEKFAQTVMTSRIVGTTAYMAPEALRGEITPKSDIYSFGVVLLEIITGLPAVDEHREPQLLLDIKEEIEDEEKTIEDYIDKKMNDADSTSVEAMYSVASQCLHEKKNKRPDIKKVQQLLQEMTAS

Regarding `CC(C)Nc1cc(-c2ccc3cc(C#N)cnn23)ncc1C(=O)N[C@H]1CC[C@H](NC(=O)C2CC2)CC1` [Example 125, 6-(3-cyanopyrrolo[1,2-b]pyridazin-7-yl)-N-((1r,4r)-4-(cyclopropane-carboxamido)cyclohexyl)-4-(isopropyl-amino)nicotinamide], the EC50 (usually the concentration giving half of the maximal effect) in the assay with TNFα worked out at 114 nM. Also, the IC50 (as a rule, the point on the concentration scale where inhibition reaches its midpoint) against IRAK4 enzyme is 1 nM.
For `CC(C)Nc1cc(-c2ccc3cc(C#N)cnn23)ncc1C(=O)N[C@H]1CC[C@H](NC(=O)N2CCOCC2)CC1` [Example 126, N-((1r,4r)-4-(6-(3-cyano-pyrrolo[1,2-b]pyridazin-7-yl)-4-(isopropylamino)nicotinamido)cyclohexyl) morpholine-4-carboxamide], in that order: 92 nM and 1 nM.
As for `CC(C)Nc1cc(-c2ccc3cc(C#N)cnn23)ncc1C(=O)N[C@H]1CC[C@H](NC(=O)C(F)(F)F)CC1` [Example 127, 6-(3-cyanopyrrolo[1,2-b]pyridazin-7-yl)-4-(isopropyl-amino)-N-((1r,4r)-4-(2,2,2-trifluoroacetamido)cyclohexyl)nicotinamide], in the assay with TNFα, the EC50 amounted to 112 nM. Moreover, the IC50 at IRAK4 enzyme is under 1 nM.
For `CCn1cnc(Nc2cc(-c3ccc4cc(C#N)cnn34)ncc2C(=O)NC[C@@H](F)C(C)(C)O)n1` [Example 128, (R)-6-(3-cyanopyrrolo[1,2-b]pyridazin-7-yl)-4-((1-ethyl-1H-1,2,4-triazol-3-yl)amino)-N-(2-fluoro-3-hydroxy-3-methylbutyl)nicotinamide], in that order: 141 nM and 1 nM.
For `CC(C)(O)[C@H](F)CNC(=O)c1cnc(-c2ccc3cc(C#N)cnn23)cc1Nc1cnn2c1CCCC2` [Example 129, (R)-6-(3-cyanopyrrolo[1,2-b]pyridazin-7-yl)-N-(2-fluoro-3-hydroxy-3-methylbutyl)-4-((4,5,6,7-tetrahydropyrazolo[1,5-a]pyridin-3-yl)amino)nicotinamide], in that order: 377 nM and 6 nM.
For `CC1(C)OCCC1Nc1cc(-c2ccc3cc(C#N)cnn23)ncc1C(=O)NC[C@@H](F)C(C)(C)O` (stereo partly drawn) [Example 130, 6-(3-cyanopyrrolo[1,2-b]pyridazin-7-yl)-4-((2,2-dimethyltetrahydrofuran-3-yl)amino)-N-((R)-2-fluoro-3-hydroxy-3-methylbutyl)nicotinamide], in that order: 221 nM and 3 nM.
For `CC(=O)NC12CCC(NC(=O)c3cnc(-c4ccc5cc(C#N)cnn45)cc3NC(C)C)(CC1)CC2` [Example 131, N-(4-acetamido-bicyclo[2.2.2]octan-1-yl)-6-(3-cyanopyrrolo[1,2-b]pyridazin-7-yl)-4-(isopropylamino) nicotinamide], the EC50 in the assay on TNFα was 154 nM. The same molecule yielded a concentration for half-maximal inhibition (IC50) against IRAK4 enzyme of 1 nM.
For `CC(=O)NC12CC(NC(=O)c3cnc(-c4ccc5cc(C#N)cnn45)cc3NC(C)C)(C1)C2` [Example 132, N-(3-acetamidobicyclo [1.1.1]pentan-1-yl)-6-(3-cyanopyrrolo[1,2-b]pyridazin-7-yl)-4-(isopropylamino) nicotinamide], in that order: 222 nM and 5 nM.
Taken in the same sequence, the figures for `COCCCNc1cc(-c2ccc3cc(C#N)cnn23)ncc1C(=O)NC[C@@H](F)C(C)(C)O` [Example 133, (R)-6-(3-cyanopyrrolo[1,2-b]pyridazin-7-yl)-N-(2-fluoro-3-hydroxy-3-methylbutyl)-4-((3-methoxypropyl)amino) nicotinamide] were 91 nM and 1 nM.
For `CC(C)Nc1cc(-c2ccc3cc(C#N)cnn23)ncc1C(=O)NC1CCC(NC(=O)C2(C)COC2)CC1` (centres unmarked) [Example 134, 6-(3-cyanopyrrolo[1,2-b]pyridazin-7-yl)-4-(isopropylamino)-N-((1r,4r)-4-(3-methyloxetane-3-carboxamido)cyclohexyl)nicotinamide], in that order: 101 nM and 1 nM.
With `CC(C)Nc1cc(-c2ccc3cc(C#N)cnn23)ncc1C(=O)NC1CCC(NC(=O)C(C)(C)O)CC1` (centres unmarked) [Example 135, 6-(3-cyanopyrrolo[1,2-b]pyridazin-7-yl)-N-((1r,4r)-4-(2-hydroxy-2-methylpropanamido)cyclo-hexyl)-4-(isopropylamino) nicotinamide], in the assay with TNFα, the EC50 is 130 nM. The same molecule yielded an IC50 on IRAK4 enzyme of 2 nM.
Taken in the same sequence, the figures for `CC1(F)CC(Nc2cc(-c3ccc4cc(C#N)cnn34)ncc2C(=O)NC[C@@H](F)C(C)(C)O)C1` (stereo partly drawn) [Example 136, (R)-6-(3-cyanopyrrolo[1,2-b]pyridazin-7-yl)-N-(2-fluoro-3-hydroxy-3-methylbutyl)-4-((3-fluoro-3-methylcyclobutyl)amino) nicotinamide] were 163 nM and 2 nM.
Taken in the same sequence, the figures for `CC(C)(O)[C@H](F)CNC(=O)c1cnc(-c2ccc3cc(C#N)cnn23)cc1NCC1CC1(F)F` (stereo partly drawn) [Example 137, 6-(3-cyanopyrrolo[1,2-b]pyridazin-7-yl)-4-(((2,2-difluorocyclopropyl)methyl)amino)-N-((R)-2-fluoro-3-hydroxy-3-methylbutyl)nicotinamide] were 140 nM and 2 nM.
For `CC(C)(O)Cn1cc(Nc2cc(-c3ccc4cc(C#N)cnn34)ncc2C(=O)NC[C@@H](F)C(C)(C)O)cn1` [Example 138, (R)-6-(3-cyanopyrrolo[1,2-b]pyridazin-7-yl)-N-(2-fluoro-3-hydroxy-3-methylbutyl)-4-((1-(2-hydroxy-2-methylpropyl)-1H-pyrazol-4-yl)amino)nicotinamide], in that order: 117 nM and 1 nM.
As to `CC(C)Nc1cc(-c2ccc3cc(C#N)cnn23)ncc1C(=O)NC1CCS(=O)(=O)CC1` [Example 139, 6-(3-cyanopyrrolo[1,2-b]pyridazin-7-yl)-N-(1,1-dioxidotetrahydro-2H-thiopyran-4-yl)-4-(isopropylamino) nicotinamide], the EC50 in the assay on TNFα worked out at 254 nM. For the same molecule, on IRAK4 enzyme, the IC50 is 19 nM.
For `CC(C)(O)[C@H](F)CNC(=O)c1cnc(-c2ccc3cc(C#N)cnn23)cc1Nc1ccc(C#N)cc1` [Example 140, (R)-4-((4-cyanophenyl)amino)-6-(3-cyanopyrrolo[1,2-b]pyridazin-7-yl)-N-(2-fluoro-3-hydroxy-3-methylbutyl)nicotinamide], in that order: 58 nM and under 1 nM.
Consider `CC(C)(O)[C@H](F)CNC(=O)c1cnc(-c2ccc3cc(C#N)cnn23)cc1Nc1cccc(C#N)c1` [Example 141, (R)-4-((3-cyanophenyl)amino)-6-(3-cyano-pyrrolo[1,2-b]pyridazin-7-yl)-N-(2-fluoro-3-hydroxy-3-methylbutyl)nicotinamide], for which, in the assay with TNFα, the EC50 is 70 nM. The IC50 against IRAK4 enzyme is under 1 nM.
For `Cc1nsc(Nc2cc(-c3ccc4cc(C#N)cnn34)ncc2C(=O)NC[C@@H](F)C(C)(C)O)n1` [Example 142, (R)-6-(3-cyanopyrrolo[1,2-b]pyridazin-7-yl)-N-(2-fluoro-3-hydroxy-3-methylbutyl)-4-((3-methyl-1,2,4-thiadiazol-5-yl)amino) nicotinamide], in that order: 169 nM and 4 nM.
Taken in the same sequence, the figures for `CC(C)(O)[C@H](F)CNC(=O)c1cnc(-c2ccc3cc(C#N)cnn23)cc1Nc1ccccc1C#N` [Example 143, (R)-4-((2-cyanophenyl)amino)-6-(3-cyanopyrrolo[1,2-b]pyridazin-7-yl)-N-(2-fluoro-3-hydroxy-3-methylbutyl)nicotinamide] were 720 nM and 18 nM.
On to `CC(C)(O)[C@H](F)CNC(=O)c1cnc(-c2ccc3cc(C#N)cnn23)cc1Nc1nnc(N2CCOCC2)o1` [Example 144, (R)-6-(3-cyanopyrrolo[1,2-b]pyridazin-7-yl)-N-(2-fluoro-3-hydroxy-3-methylbutyl)-4-((5-morpholino-1,3,4-oxadiazol-2-yl)amino) nicotinamide], for which the EC50 in the assay with TNFα was over 10000 nM. Inhibition at IRAK4 enzyme was half-maximal at 656 nM (IC50).
Taken in the same sequence, the figures for `CC(C)(O)[C@H](F)CNC(=O)c1cnc(-c2ccc3cc(C#N)cnn23)cc1Nc1cncnc1` [Example 145, (R)-6-(3-cyanopyrrolo[1,2-b]pyridazin-7-yl)-N-(2-fluoro-3-hydroxy-3-methylbutyl)-4-(pyrimidin-5-ylamino)nicotinamide] were 70 nM and under 1 nM.
Turning to `Cc1nnc(Nc2cc(-c3ccc4cc(C#N)cnn34)ncc2C(=O)NC[C@@H](F)C(C)(C)O)s1` [Example 146, (R)-6-(3-cyanopyrrolo[1,2-b]pyridazin-7-yl)-N-(2-fluoro-3-hydroxy-3-methylbutyl)-4-((5-methyl-1,3,4-thiadiazol-2-yl)amino)nicotinamide], the EC50 in the assay on TNFα was 117 nM. This molecule also yielded an IC50 against IRAK4 enzyme of 1 nM.
For `CC(C)(O)[C@H](F)CNC(=O)c1cnc(-c2ccc3cc(C#N)cnn23)cc1N[C@H]1[C@@H]2COC[C@@H]21` [Example 147, 4-(((1R,5S,6r)-3-oxabicyclo[3.1.0]hexan-6-yl)amino)-6-(3-cyano-pyrrolo[1,2-b]pyridazin-7-yl)-N-((R)-2-fluoro-3-hydroxy-3-methylbutyl)nicotinamide], in that order: 47 nM and under 1 nM.
For `CC(C)(O)[C@H](F)CNC(=O)c1cnc(-c2ccc3cc(C#N)cnn23)cc1N[C@@H]1[C@@H]2COC[C@@H]21` [Example 148, 4-(((1R,5S,6s)-3-oxabicyclo[3.1.0]hexan-6-yl)amino)-6-(3-cyano-pyrrolo[1,2-b]pyridazin-7-yl)-N-((R)-2-fluoro-3-hydroxy-3-methylbutyl)nicotinamide], in that order: 206 nM and 2 nM.
For `CC(C)Nc1cc(-c2ccc3cc(C#N)cnn23)ncc1C(=O)NC1CC2(CC(O)C2)C1` (centres unmarked) [Example 149, 6-(3-cyanopyrrolo[1,2-b]pyridazin-7-yl)-N-(6-hydroxyspiro[3.3]heptan-2-yl)-4-(isopropylamino) nicotinamide], in that order: 148 nM and 1 nM.
